Laboratory results: patent US7531622B2, “Synthesis and characterization of novel systems for guidance and vectorization of molecules of therapeutic interest towards target cells” (Centre National de la Recherche Scientifique- CNRS, priority 2002, dated 2009)
Non-standard residues stand in square brackets, D forms with d.

Test system: HEK293 cells that overexpress integrin β3
Experiment: Internalization of fluorescein-labeled peptides, confocal microscopy with early endosome immunolabeling
Assay type: cell-based
Conditions: 37° C., 15 to 30 minutes
Protocol: 3) Active internalization of drugs or vectorized products: The same cells, placed in contact at 37° C. or 4° C. for 15 to 30 minutes with peptides previously labeled with fluorescein, are observed by confocal microscopy after immunolabeling of the early endosome vesicles (anti-Early Endosome 1A labeling, visualized in red).
If incubation of the peptides is performed at 4° C., only the extracellular label is observed with the peptide obtained according to the invention, confirming that internalization takes place by way of an active process.

cyclo(RGDfK) (cyclo(RGD[dF]K)) [cRGD]
visualization / detection of the peptide on and in cells by fluorescence: not detectable by immunofluorescence | internalization by endocytosis (co-localization with EE1A label) (fluorescein-labeled peptide): not triggered
